Where a name gives a salt, the structure may show the parent alone.
Legend:
[1] = molecular target: T1, purified recombinant form of human BACE1 aspartyl protease (Homo sapiens, UniProt P56817); test: in vitro inhibition of β-secretase (BACE1) activity, cleavage of fluorogenic peptide substrate FS1 (FRET); type: biochemical; conditions: recombinant human BACE1 10 nM, substrate FS1 5 μM, sodium acetate buffer pH 4.5, 37° C., 45 minutes; read-out: IC50 (concentration of product giving 50% inhibition of the enzyme activity)
T1 construct: hexahistidine (C); made in house; host or cells: Drosophila cells
T1 sequence (P56817 46-501): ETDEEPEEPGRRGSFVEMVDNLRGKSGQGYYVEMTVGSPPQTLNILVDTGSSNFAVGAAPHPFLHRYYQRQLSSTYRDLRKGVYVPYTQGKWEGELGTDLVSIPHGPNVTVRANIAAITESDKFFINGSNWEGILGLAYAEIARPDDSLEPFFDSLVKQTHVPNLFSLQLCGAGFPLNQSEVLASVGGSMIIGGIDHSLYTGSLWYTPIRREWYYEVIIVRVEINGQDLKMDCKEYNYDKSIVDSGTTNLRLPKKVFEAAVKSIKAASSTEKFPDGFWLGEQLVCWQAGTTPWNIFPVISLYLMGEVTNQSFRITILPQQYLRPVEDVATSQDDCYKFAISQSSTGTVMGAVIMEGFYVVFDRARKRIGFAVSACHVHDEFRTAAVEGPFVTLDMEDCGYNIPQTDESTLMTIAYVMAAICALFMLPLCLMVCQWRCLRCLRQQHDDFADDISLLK
Excerpt: The compounds according to the invention have been the subject of pharmacological tests enabling their inhibitory effect with respect to β-secretase activity to be determined.
The tests consisted in measuring the in vitro inhibition of the β-secretase activity by the compounds of the invention.
The β-secretase activity measured corresponds to that of a purified recombinant form of human BACE1 aspartyl protease (the latter comprising a hexahistidine tag at the C-terminal position) produced by expression in Drosophila cells. The purified enzyme is conditioned in TRIS buffer (18 mM) at pH 7.5 containing NaCl (0.45M), MnCl2 (0.9 mM), CaCl2 (0.9 mM), α-D-methylmannoside and 10% glycerol, and stored at −80° C. until use.
The BACE1 activity is measured from the cleavage of a fluorogenic peptide substrate, known as FS1, described originally by Ermolieff et Coll. (2000, Biochemistry, 39, 12450-12456), and based on the principle of fluorescence resonance energy transfer (FRET); the cleavage of the FS1 peptide is measured from the increase of the fluorescent signal emitted by the EDANS (or 5-[(2-aminoethyl)amino]-naphthalene-2-sulfonic acid) group.
The test is carried out in a 96-well microplate in order to determine the inhibition of the enzyme activity by the products of the invention. The substrate FS1 is solubilized to a concentration of 1 mM in 100% dimethylsulfoxide (DMSO) and stored at −20° C. until use. The dilutions of the products to be tested are prepared in DMSO starting from a 10 mM stock solution. The products of the invention, at final concentrations of 0.003 to 10 μM are incubated at 37° C. with the substrate FS1 (final concentration of 5 μM) and the purified enzyme (final concentration of 10 nM) in the sodium acetate buffer (0.1 M), pH 4.5 containing 0.02% of CHAPS detergent and […] for 45 minutes. […] When the incubation is finished, the fluorescence is measured in a spectrofluorimeter, at the excitation wavelength of 355 nm and emission wavelength of 509 nm. For each product concentration tested, the fluorescent signal is compared to the maximum signal obtained when the substrate FS1 is only incubated with the enzyme.
The inhibitory activity of the products of the invention is then evaluated by the measurement of the IC50 (concentration of product giving 50% inhibition of the enzyme activity) using a non-linear regression analysis (computer application software XLfit, IDBS™).

Row | SMILES | melting point [°C] | IC50 [1] [nM]
1 | CCN(CC)C(=O)c1cc(C(=O)N[C@@H](Cc2ccccc2)[C@H](O)CNC2(c3cccc(C(F)(F)F)c3)CC2)n2c1CNCC2 (as salt: HCl) [Compound 5, 6-{(1S,2R)-1-benzyl-2-hydroxy-3-[1-(3-trifluoromethylphenyl)cyclopropylamino]propyl}-N-8,N-8-diethyl-1,2,3,4-tetrahydropyrrolo[1,2-a]pyrazine-6,8-dicarboxamide] | 143 | 
2 | COC(=O)c1cc(C(=O)N[C@@H](Cc2ccccc2)[C@H](O)CNC2(c3cccc(C(F)(F)F)c3)CC2)n2c1CN(C(=O)OC(C)(C)C)CC2 [Compound 1, 2-tert-Butyl 8-methyl 6-{[(1S,2R)-1-benzyl-2-hydroxy-3-({1-[3-(trifluoromethyl)phenyl]cyclopropyl}amino)propyl]carbamoyl}-3,4-dihydropyrrolo[1,2-a]pyrazine-2,8(1H)-dicarboxylate] | 136 | 
3 | CC(C)(C)OC(=O)N1CCn2c(C(=O)N[C@@H](Cc3ccccc3)[C@H](O)CNC3(c4cccc(C(F)(F)F)c4)CC3)cc(C(=O)O)c2C1 [Compound 2, 6-{[(1S,2R)-1-Benzyl-2-hydroxy-3-({1-[3-(trifluoromethyl)phenyl]cyclopropyl}amino)propyl]carbamoyl}-2-(tert-butoxycarbonyl)-1,2,3,4-tetrahydropyrrolo[1,2-a]pyrazine-8-carboxylic acid] | 134.5 | 
4 | CCN(CC)C(=O)c1cc(C(=O)N[C@@H](Cc2ccccc2)[C@H](O)CNC2(c3cccc(C(F)(F)F)c3)CC2)n2c1CNCC2 [Compound 5, 6-{(1S,2R)-1-benzyl-2-hydroxy-3-[1-(3-trifluoromethylphenyl)cyclopropylamino]propyl}-N-8,N-8-diethyl-1,2,3,4-tetrahydropyrrolo[1,2-a]pyrazine-6,8-dicarboxamide] |  | 310

Second part, the compound after the results:

Row | melting point [°C] | IC50 [1] [nM] | SMILES
5 | 176 |  | CCCC(CCC)N1CCn2c(C(=O)N[C@@H](Cc3ccccc3)[C@H](O)CNC3(c4cccc(C(F)(F)F)c4)CC3)ccc2C1=O.Cl
6 | 183 | 480 | CCCC(CCC)N1CCn2c(C(=O)N[C@@H](Cc3cc(F)cc(F)c3)[C@H](O)CNC3(c4cccc(C(F)(F)F)c4)CC3)ccc2C1=O.Cl [Compound 7, N-[(1S,2R)-1-(3,5-Difluorobenzyl)-2-hydroxy-3-({1-[3-(trifluoromethyl)-phenyl]cyclopropyl}amino)propyl]-1-oxo-2-(1-propylbutyl)-1,2,3,4-tetrahydropyrrolo[1,2-a]pyrazine-6-carboxamide hydrochloride (1:1)]
7 | 168 | 370 | CCCC(CCC)N1CCn2c(C(=O)N[C@@H](Cc3ccccc3)[C@H](O)CNCc3cccc(C(F)(F)F)c3)ccc2C1=O.Cl [Compound 9, N-[(1S,2R)-1-Benzyl-2-hydroxy-3-{[3-(trifluoromethyl)benzyl]amino}propyl]-1-oxo-2-(1-propylbutyl)-1,2,3,4-tetrahydropyrrolo[1,2-a]pyrazine-6-carboxamide hydrochloride (1:1)]
8 |  | 1400 | CCCC(CCC)N1CCCn2c(C(=O)N[C@@H](Cc3ccccc3)[C@H](O)CNCc3cccc(C(F)(F)F)c3)ccc2C1=O [Compound 11, N-[(1S,2R)-1-Benzyl-2-hydroxy-3-{[3-(trifluoromethyl)benzyl]amino}propyl]-1-oxo-2-(1-propylbutyl)-2,3,4,5-tetrahydro-1H-pyrrolo[1,2-a][1,4]diazepine-7-carboxamide hydrochloride (1:1)]
